Reference: US7935819B2, “Cyclic urea derivatives, preparation thereof and pharmaceutical use thereof as kinase inhibitors” (Aventis Pharma S.A., priority 2006, dated 2011)
Read-outs that look alike come from different tables or passages of the source. Each block holds one molecule with its values, some of them ahead of it.

Columns and labels:
[1] = biological target: MEF-IGF1R cells (stable clone transfected with hIGF-1R) (Homo sapiens, UniProt P08069); test: Proliferation/viability of MEF-IGF1R (Test C), [14C]thymidine incorporation; type: cell-based; details: rhIGF1 100 ng/mL, 72 hours, read-out: Test C IC50
MEF-IGF1R cells (stable clone transfected with hIGF-1R), sequence (P08069 whole entry, change not shown): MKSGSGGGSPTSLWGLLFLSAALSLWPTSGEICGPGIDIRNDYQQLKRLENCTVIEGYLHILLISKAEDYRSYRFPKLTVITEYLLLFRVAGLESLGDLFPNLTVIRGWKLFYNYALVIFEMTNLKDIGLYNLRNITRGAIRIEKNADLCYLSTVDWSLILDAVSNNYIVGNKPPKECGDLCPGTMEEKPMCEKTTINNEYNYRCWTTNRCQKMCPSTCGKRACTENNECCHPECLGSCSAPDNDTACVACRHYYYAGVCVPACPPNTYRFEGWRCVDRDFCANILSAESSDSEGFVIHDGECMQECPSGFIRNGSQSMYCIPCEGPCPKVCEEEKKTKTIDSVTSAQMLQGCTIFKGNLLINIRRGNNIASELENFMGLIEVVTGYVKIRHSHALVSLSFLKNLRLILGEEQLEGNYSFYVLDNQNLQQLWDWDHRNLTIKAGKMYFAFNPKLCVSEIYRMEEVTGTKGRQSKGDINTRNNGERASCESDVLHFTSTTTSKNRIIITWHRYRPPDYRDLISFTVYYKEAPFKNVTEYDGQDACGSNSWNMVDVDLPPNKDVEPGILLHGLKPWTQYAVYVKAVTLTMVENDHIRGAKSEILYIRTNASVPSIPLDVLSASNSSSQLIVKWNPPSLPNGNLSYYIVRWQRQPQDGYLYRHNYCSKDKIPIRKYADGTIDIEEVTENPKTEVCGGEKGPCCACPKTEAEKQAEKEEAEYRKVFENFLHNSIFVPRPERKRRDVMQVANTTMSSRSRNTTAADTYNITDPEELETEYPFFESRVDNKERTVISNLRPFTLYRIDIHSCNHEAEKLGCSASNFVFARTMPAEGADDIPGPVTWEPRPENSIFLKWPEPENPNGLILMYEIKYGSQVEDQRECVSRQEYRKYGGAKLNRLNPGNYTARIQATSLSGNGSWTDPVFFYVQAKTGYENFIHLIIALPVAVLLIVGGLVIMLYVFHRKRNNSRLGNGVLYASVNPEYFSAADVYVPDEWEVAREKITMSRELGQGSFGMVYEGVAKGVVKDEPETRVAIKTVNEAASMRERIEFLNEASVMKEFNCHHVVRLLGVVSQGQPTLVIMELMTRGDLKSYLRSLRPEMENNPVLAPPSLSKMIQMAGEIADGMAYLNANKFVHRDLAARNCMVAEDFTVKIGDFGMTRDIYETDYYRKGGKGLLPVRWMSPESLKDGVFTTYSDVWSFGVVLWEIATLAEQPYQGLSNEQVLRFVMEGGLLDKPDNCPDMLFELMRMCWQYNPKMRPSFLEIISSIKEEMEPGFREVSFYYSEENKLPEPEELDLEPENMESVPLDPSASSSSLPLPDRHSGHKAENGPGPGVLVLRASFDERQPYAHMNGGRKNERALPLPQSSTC
Method: C) Measurement of the Proliferation/Viability of MEF-IGF1R
Cell culture: the MEF-IGF1R cells (stable clone of cells transfected with the receptor hIGF-1R) are cultured at 37° C. under 5% CO2 in EMEM medium containing 10% FCS.
Test procedure: the cells are seeded at 5000 cells per well in 96-well Cytostar plates (Amersham) with 0.2 mL of EMEM culture medium at 37° C. for 18 hours. The cells are then washed twice with EMEM medium and left to culture without serum for 24 hours. The compounds are then added at various concentrations in the presence of rhIGF1 (100 ng/mL) and 0.1 μCi of Thymidine [^14C] (specific activity ˜50 mCi/mmol) to give 0.2 mL of volume per well. After incubation for 72 hours in the presence of the compound, at 37° C. under 5% CO2, the incorporation of Thymidine [^14C] is measured by counting the radioactivity on a Microbeta trilux counter (Perkin-Elmer). The IC50 is determined from 10 increasing concentrations of the compound.
(§1) (i) The tests are performed in duplicate and the mean of the two tests is calculated.
(§2) (ii) The value of the signal of the maximum response is calculated from the positive control: cells stimulated with IGF1 without compound.
(§3) (iii) Value of the signal of the minimum response is calculated from the negative control: cells not stimulated with IGF1 without compound.
(§4) (iv) By using these values as maximum (100%) and minimum (0%), respectively, the data were normalized so as to give a percentage of the maximum response.
(§5) (v) A curve of dose response is plotted and the IC50 (the concentration of which the compound induces a 50% decrease in the signal) of the compound is calculated by non-linear regression analysis.

[2] = biological target: T1, IGF-1R (human cytoplasmic domain fused with GST) (Homo sapiens, UniProt P08069); test: Kinase IGF-1R test (Test A): inhibition of autophosphorylation of the enzyme, HTRF; type: biochemical; details: 120 μM ATP
T1 construct: The human cytoplasmic domain of IGF-1R was cloned by fusion with glutathione S-transferase (GST); made in house; host or cells: SF21 insect cells (baculovirus, pFastBac-GST)
T1 sequence (P08069 960-1367 limits assumed): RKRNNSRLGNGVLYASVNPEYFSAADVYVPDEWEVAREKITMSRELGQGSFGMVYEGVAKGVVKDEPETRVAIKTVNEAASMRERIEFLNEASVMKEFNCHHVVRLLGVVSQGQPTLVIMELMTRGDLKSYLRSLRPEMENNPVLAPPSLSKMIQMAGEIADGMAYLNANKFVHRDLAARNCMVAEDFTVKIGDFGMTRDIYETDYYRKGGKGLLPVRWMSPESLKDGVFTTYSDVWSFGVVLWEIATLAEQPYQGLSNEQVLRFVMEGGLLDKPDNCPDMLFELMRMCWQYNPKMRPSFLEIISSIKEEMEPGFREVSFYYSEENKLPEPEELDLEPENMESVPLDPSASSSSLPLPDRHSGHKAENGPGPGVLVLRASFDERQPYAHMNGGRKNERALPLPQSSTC
Method: A) Experimental Protocol for the Kinase IGF-1R Test:
The inhibitory activity of the compounds on IGF1R is determined by measuring the inhibition of autophosphorylation of the enzyme using a time-resolved fluorescence test (HTRF). The human cytoplasmic domain of IGF-1R was cloned by fusion with glutathione S-transferase (GST) in the baculovirus expression vector pFastBac-GST. The protein is expressed in the SF21 cells and purified to about 80% homogeneity. For the enzymatic test, the test compound at 10 mM dissolved in DMSO is diluted in 1/3 steps in a 50 mM Hepes, pH 7.5, 5 mM MnCl2, 50 mM NaCl, 3% Glycerol, 0.025% Tween 20 buffer. To measure the inhibition, the successive dilutions of the compound are preincubated for 30 minutes and 90 minutes in the presence of 5 nM of enzyme, the final DMSO concentration not exceeding 1%. The enzymatic reaction is initiated to have a final ATP concentration of 120 μM, and is stopped after 5 minutes by addition of 100 mM Hepes, pH 7.0 buffer containing 0.4 M of potassium fluoride, 133 mM EDTA, 0.1% BSA, the XL665-labelled antibody anti-GST and the anti-phosphotyrosine antibody conjugated to europium cryptate Eu—K (Cis-Bio Int.). The characteristics of the two fluorophores, XL-665 and Eu—K, are available in G. Mathis et al., Anticancer Research, 1997, 17, pages 3011-3014. The energy transfer between the excited europium cryptate to the acceptor XL665 is proportional to the degree of autophosphorylation of IGF-1R. The specific long-lasting signal of XL-665 is measured in a GENios Pro TECAN plate counter. The inhibition of autophosphorylation of IGF-1R at time 30 minutes and 90 minutes with the test compounds of the invention is calculated relative to a 1% in DMSO control, whose activity is measured in the absence of compound. The curve representing the percentage of inhibition as a function of the log of the concentration is established to determine the concentration corresponding to 50% inhibition (IC50).

[3] = biological target: T2, IGF1R in MCF-7 cells (Homo sapiens, UniProt P08069); test: Autophosphorylation of IGF-1R in MCF7 cells after stimulation with IGF-1 (Test B), ELISA; type: cell-based; details: compound added one hour before IGF1 stimulation (10 minutes)
T2 construct: endogenous in cells; host or cells: MCF-7 cells
T2 sequence (P08069 31-1367): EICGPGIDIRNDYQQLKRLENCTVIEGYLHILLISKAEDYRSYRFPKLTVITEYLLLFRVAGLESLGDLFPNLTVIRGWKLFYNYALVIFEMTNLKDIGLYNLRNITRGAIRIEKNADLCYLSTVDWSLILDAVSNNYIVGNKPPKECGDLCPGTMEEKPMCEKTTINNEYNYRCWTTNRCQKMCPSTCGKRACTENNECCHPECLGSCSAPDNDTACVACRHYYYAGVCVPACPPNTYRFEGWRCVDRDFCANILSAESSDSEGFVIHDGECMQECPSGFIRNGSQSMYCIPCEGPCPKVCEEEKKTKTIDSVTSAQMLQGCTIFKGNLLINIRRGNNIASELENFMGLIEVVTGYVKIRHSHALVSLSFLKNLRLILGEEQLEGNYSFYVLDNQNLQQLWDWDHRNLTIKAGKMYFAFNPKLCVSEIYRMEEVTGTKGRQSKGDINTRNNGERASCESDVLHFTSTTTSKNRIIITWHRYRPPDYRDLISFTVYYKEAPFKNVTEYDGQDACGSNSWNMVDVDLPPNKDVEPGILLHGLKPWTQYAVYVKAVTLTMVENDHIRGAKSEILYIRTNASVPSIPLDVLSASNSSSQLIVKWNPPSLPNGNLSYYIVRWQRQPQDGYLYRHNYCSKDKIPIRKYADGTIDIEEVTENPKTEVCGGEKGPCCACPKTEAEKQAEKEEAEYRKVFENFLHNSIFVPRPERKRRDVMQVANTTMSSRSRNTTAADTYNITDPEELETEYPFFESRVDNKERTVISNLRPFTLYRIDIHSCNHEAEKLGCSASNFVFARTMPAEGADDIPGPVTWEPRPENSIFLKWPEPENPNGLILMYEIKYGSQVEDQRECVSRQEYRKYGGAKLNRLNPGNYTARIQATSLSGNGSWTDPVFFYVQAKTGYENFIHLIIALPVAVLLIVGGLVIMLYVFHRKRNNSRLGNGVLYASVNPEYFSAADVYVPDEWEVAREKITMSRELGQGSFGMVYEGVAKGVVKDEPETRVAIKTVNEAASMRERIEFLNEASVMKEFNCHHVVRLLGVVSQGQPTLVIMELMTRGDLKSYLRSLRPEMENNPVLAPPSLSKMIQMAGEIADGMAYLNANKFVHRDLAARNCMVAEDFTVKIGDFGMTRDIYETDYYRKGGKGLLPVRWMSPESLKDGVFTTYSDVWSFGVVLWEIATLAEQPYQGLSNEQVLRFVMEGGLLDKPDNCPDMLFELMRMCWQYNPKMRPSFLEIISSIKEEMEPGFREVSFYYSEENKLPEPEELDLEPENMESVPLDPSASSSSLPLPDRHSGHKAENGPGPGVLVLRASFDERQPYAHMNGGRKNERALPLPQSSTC
Method: B) Measurement of the Autophosphorylation of IGF-1r in MCF7 Cells after Stimulation with IGF-1
Cell Culturing and Execution of the Test:
The autophosphorylation of IGF1R in the IGF1-induced cells is evaluated by means of an ELISA technique (Enzyme Linked ImmunoSorbent Assay). The MCF-7 are seeded at 60 000 cells per well in 6-well plates and incubated at 37° C., 5% CO2 in medium containing 10% serum. After one night in 10% serum, the cells are deprived of serum for 24 hours. The compounds are added to the medium one hour before stimulation with IGF1. After 10 minutes of stimulation with IGF1, the cells are lysed with a buffer (Hepes 50 mM pH 7.6, Triton X100 1%, orthovanadate 2 mM, protease inhibitor cocktail). The cell lysates are incubated on a 96-well plate precoated with an anti-IGF1R antibody, followed by incubation with an anti-phosphotyrosine antibody coupled to the enzyme peroxidase. The level of peroxidase activity (measured by OD with a luminescent substrate) reflects the phosphorylation status of the receptor.
as §1, §2, §3, §4, §5

[4] = preincubation with enzyme 30 minutes, read-out: Test A 30′ IC50
[5] = preincubation with enzyme 90 minutes, read-out: Test A 90′ IC50

SMILES: CN(C)C(=O)Nc1nccc(CN2C(=O)N(c3ccc(C(C)(C)C)cc3)C(=O)C2(C)C)n1 [Example 2, 3-(4-{[3-(4-tert-butylphenyl)-5,5-dimethyl-2,4-dioxoimidazolidin-1-yl]methyl}pyrimidin-2-yl)-1,1-dimethylurea]
- GI50 [1]: > 100 nM
- IC50 [2, 4]: > 100 nM
- IC50 [2, 5]: > 100 nM

SMILES: CN(C)C(=O)Nc1cc(CN2C(=O)N(c3ccc4c(c3)N(C(=O)CNC3CCCC3)CC4(C)C)C(=O)C2(C)C)ccn1 [Example 3, 3-[4-({3-[1-(N-cyclopentylglycyl)-3,3-dimethyl-2,3-dihydro-1H-indol-6-yl]-5,5-dimethyl-2,4-dioxoimidazolidin-1-yl}methyl)pyridin-2-yl]-1,1-dimethylurea]
- GI50 [1]: 10 to 100 nM
- IC50 [2, 4]: > 100 nM
- IC50 [2, 5]: 10 to 100 nM

SMILES: CN(C)C(=O)Nc1cc(CN2C(=O)N(c3ccc(OC(F)(F)F)c(NC(=O)[C@H](N)c4ccccc4)c3)C(=O)C2(C)C)ccn1 [Example 6a, (2R)-2-amino-N-{5-[3-({2-[(dimethylcarbamoyl)amino]pyridin-4-yl}methyl)-4,4-dimethyl-2,5-dioxoimidazolidin-1-yl]-2-(trifluoromethoxy)phenyl}-2-phenylacetamide]
- GI50 [1]: < 10 nM
- IC50 [2, 4]: > 100 nM
- IC50 [2, 5]: 10 to 100 nM

SMILES: CC(C)(C)c1ccc(N2C(=O)N(Cc3ccnc(NC(=O)NCCCN4CCCC4)c3)C(C)(C)C2=O)cc1 [Example 9, 1-(4-{[3-(4-tert-butylphenyl)-5,5-dimethyl-2,4-dioxoimidazolidin-1-yl]methyl}pyridin-2-yl)-3-(3-pyrrolidin-1-ylpropyl)urea]
- GI50 [1]: > 100 nM
- IC50 [2, 4]: 10 to 100 nM
- IC50 [2, 5]: 10 to 100 nM

SMILES: CC(C)(C)c1ccc(N2C(=O)N(Cc3ccnc(NC(=O)NC4CCCC4)c3)C(C)(C)C2=O)cc1 [Example 10, 1-(4-{[3-(4-tert-butylphenyl)-5,5-dimethyl-2,4-dioxoimidazolidin-1-yl]methyl}pyridin-2-yl)-3-cyclopentylurea]
- GI50 [1]: > 100 nM
- IC50 [2, 4]: 10 to 100 nM
- IC50 [2, 5]: 10 to 100 nM

SMILES: CC(C)(C)c1ccc(N2C(=O)N(Cc3ccnc(NC(=O)NCCN4CCCC4)c3)C(C)(C)C2=O)cc1 [Example 11, 1-(4-{[3-(4-tert-butylphenyl)-5,5-dimethyl-2,4-dioxoimidazolidin-1-yl]methyl}pyridin-2-yl)-3-(2-pyrrolidin-1-ylethyl)urea]
- GI50 [1]: > 100 nM
- IC50 [2, 4]: 10 to 100 nM
- IC50 [2, 5]: 10 to 100 nM

SMILES: CC(C)(C)c1ccc(N2C(=O)N(Cc3ccnc(NC(=O)NCCCCN4CCCC4)c3)C(C)(C)C2=O)cc1 [Example 12, 1-(4-{[3-(4-tert-butylphenyl)-5,5-dimethyl-2,4-dioxoimidazolidin-1-yl]methyl}pyridin-2-yl)-3-(4-pyrrolidin-1-ylbutyl)urea]
- GI50 [1]: > 100 nM
- IC50 [2, 4]: 10 to 100 nM
- IC50 [2, 5]: < 10 nM

SMILES: CC(C)(C)c1ccc(N2C(=O)N(Cc3ccnc(NC(=O)NC4CCCCC4)c3)C(C)(C)C2=O)cc1 [Example 16, 1-(4-{[3-(4-tert-butylphenyl)-5,5-dimethyl-2,4-dioxoimidazolidin-1-yl]methyl}pyridin-2-yl)-3-cyclohexylurea]
- GI50 [1]: > 100 nM
- IC50 [2, 4]: > 100 nM
- IC50 [2, 5]: 10 to 100 nM

SMILES: CC(C)(C)c1ccc(N2C(=O)N(Cc3ccnc(NC(=O)N4CCOCC4)c3)C(C)(C)C2=O)cc1 [Example 20, N-(4-{[3-(4-tert-butylphenyl)-5,5-dimethyl-2,4-dioxoimidazolidin-1-yl]methyl}pyridin-2-yl)morpholine-4-carboxamide]
- GI50 [1]: > 100 nM
- IC50 [2, 4]: 10 to 100 nM
- IC50 [2, 5]: < 10 nM

SMILES: CCCCN(C)C(=O)Nc1cc(CN2C(=O)N(c3ccc(C(C)(C)C)cc3)C(=O)C2(C)C)ccn1 [Example 27, 1-butyl-3-(4-{[3-(4-tert-butylphenyl)-5,5-dimethyl-2,4-dioxoimidazolidin-1-yl]methyl}pyridin-2-yl)-1-methylurea]
- GI50 [1]: > 100 nM
- IC50 [2, 4]: 10 to 100 nM
- IC50 [2, 5]: 10 to 100 nM

SMILES: CC(C)(C)c1ccc(N2C(=O)N(Cc3ccnc(Nc4cncc(F)c4)c3)C(C)(C)C2=O)cc1 [Example 31A, 3-(4-tert-butylphenyl)-1-({2-[(5-fluoropyridin-3-yl)amino]pyridin-4-yl}methyl)-5,5-dimethylimidazolidine-2,4-dione]
- GI50 [1]: > 100 nM
- IC50 [2, 4]: 10 to 100 nM
- IC50 [2, 5]: 10 to 100 nM

Further lines, with some results ahead:

- IC50 [2, 4]: 10 to 100 nM
- IC50 [2, 5]: 10 to 100 nM
SMILES: CC(C)(C)c1ccc(N2C(=O)N(Cc3ccnc(N)n3)C(C)(C)C2=O)cc1 [Example 1 Stage f), 1-[(2-aminopyrimidin-4-yl)methyl]-3-(4-tert-butylphenyl)-5,5-dimethylimidazolidine-2,4-dione]
- GI50 [1]: > 100 nM

- IC50 [2, 4]: 10 to 100 nM
- IC50 [2, 5]: < 10 nM
- IC50 [3]: < 10 nM
SMILES: CC(C)(C)c1ccc(N2C(=O)N(Cc3ccnc(Nc4cccnc4)n3)C(C)(C)C2=O)cc1 [Example 1, 3-(4-tert-butylphenyl)-5,5-dimethyl-1-[2-(pyridin-3-ylamino)pyrimidin-4-ylmethyl]imidazolidine-2,4-dione]
- GI50 [1]: < 10 nM

- IC50 [2, 4]: 10 to 100 nM
- IC50 [2, 5]: 10 to 100 nM
SMILES: CC1(C)CN(C(=O)CNC2CCCC2)c2cc(N3C(=O)N(Cc4ccnc(Nc5cccnc5)c4)C(C)(C)C3=O)ccc21 [Example 4, 3-[1-(N-cyclopentylglycyl)-3,3-dimethyl-2,3-dihydro-1H-indol-6-yl]-5,5-dimethyl-1-{[2-(pyridin-3-ylamino)pyridin-4-yl]methyl}imidazolidine-2,4-dione]
- GI50 [1]: < 10 nM

- IC50 [2, 4]: 10 to 100 nM
- IC50 [2, 5]: 10 to 100 nM
SMILES: CC1(C)C(=O)N(c2ccc(OC(F)(F)F)c(NC(=O)[C@H](N)c3ccccc3)c2)C(=O)N1Cc1ccnc(Nc2cccnc2)c1 [Example 5a, (2R)-2-amino-N-[5-(4,4-dimethyl-2,5-dioxo-3-{[2-(pyridin-3-ylamino)pyridin-4-yl]methyl}imidazolidin-1-yl)-2-(trifluoromethoxy)phenyl]-2-phenylacetamide]
- GI50 [1]: < 10 nM

- IC50 [2, 4]: 10 to 100 nM
- IC50 [2, 5]: 10 to 100 nM
SMILES: CC(C)(C)c1ccc(N2C(=O)N(Cc3ccnc(Nc4cncnc4)c3)C(C)(C)C2=O)cc1 [Example 7, 3-(4-tert-butylphenyl)-5,5-dimethyl-1-{[2-(pyrimidin-5-ylamino)pyridin-4-yl]methyl}imidazolidine-2,4-dione]
- GI50 [1]: > 100 nM

- IC50 [2, 4]: 10 to 100 nM
- IC50 [2, 5]: < 10 nM
- IC50 [3]: < 10 nM
SMILES: CC(C)(C)c1ccc(N2C(=O)N(Cc3ccnc(Nc4cncnc4)n3)C(C)(C)C2=O)cc1 [Example 8, 3-(4-tert-butylphenyl)-5,5-dimethyl-1-{[2-(pyrimidin-5-ylamino)pyrimidin-4-yl]methyl}imidazolidine-2,4-dione]
- GI50 [1]: < 10 nM
